Laboratory results as given in ChEMBL document CHEMBL6078684, “Discovery of a Novel Non-invasive AR PROTAC Degrader for the Topical Treatment of Androgenetic Alopecia” (J Med Chem, 2024).
The source made the active and inactive calls. The rule behind the calls is not given here.

Tests used:
[1] = target: T1, Protein cereblon/Androgen receptor (Homo sapiens, UniProt P10275+Q96SW2); experiment: PROTAC activity at CRBN/AR in human dermal papilla cell assessed as induction of AR degradation at 500 nM by Western blot analysis; type: cell-based; details: time 2-24 hrs
T1 sequence (P10275 whole entry, looked up): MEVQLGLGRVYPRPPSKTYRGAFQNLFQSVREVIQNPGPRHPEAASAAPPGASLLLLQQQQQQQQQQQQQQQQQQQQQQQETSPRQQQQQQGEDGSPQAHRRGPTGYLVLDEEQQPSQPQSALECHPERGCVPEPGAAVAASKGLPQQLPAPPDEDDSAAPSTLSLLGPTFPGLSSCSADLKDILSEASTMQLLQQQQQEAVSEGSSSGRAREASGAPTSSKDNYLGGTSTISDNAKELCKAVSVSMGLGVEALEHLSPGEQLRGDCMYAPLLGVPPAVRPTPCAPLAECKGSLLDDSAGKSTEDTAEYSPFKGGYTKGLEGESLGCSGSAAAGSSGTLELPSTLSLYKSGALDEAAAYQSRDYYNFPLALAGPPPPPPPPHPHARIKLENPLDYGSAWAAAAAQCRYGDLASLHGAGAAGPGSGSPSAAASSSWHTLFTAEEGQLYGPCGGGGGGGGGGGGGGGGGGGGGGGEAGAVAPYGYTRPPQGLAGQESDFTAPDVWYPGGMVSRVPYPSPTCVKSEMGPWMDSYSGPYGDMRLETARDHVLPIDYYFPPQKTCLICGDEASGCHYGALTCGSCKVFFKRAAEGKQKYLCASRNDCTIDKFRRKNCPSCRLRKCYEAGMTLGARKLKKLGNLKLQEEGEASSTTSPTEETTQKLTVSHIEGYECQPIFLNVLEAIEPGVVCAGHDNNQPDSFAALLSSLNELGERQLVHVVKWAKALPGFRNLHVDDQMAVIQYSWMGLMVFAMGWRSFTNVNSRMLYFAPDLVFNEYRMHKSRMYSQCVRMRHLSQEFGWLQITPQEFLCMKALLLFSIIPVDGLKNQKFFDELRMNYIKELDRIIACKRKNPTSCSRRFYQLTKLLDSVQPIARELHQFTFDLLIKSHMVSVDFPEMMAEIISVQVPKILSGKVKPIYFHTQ
T1 sequence (Q96SW2 whole entry, looked up): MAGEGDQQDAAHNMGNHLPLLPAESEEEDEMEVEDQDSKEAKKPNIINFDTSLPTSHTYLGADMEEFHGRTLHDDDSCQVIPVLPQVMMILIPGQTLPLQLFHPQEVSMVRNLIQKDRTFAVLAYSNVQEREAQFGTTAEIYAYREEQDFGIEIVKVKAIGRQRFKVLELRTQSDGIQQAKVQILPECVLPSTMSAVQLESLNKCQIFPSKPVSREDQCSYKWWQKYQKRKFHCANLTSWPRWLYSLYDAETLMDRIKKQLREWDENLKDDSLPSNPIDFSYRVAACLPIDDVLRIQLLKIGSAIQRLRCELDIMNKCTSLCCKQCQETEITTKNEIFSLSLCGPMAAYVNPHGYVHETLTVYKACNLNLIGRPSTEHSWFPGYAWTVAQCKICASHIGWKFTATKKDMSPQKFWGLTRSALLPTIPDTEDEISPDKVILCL

[2] = target: T1, Protein cereblon/Androgen receptor; experiment: PROTAC activity at CRBN/AR in human dermal papilla cells assessed as induction of AR degradation at 500 nM in presence of MG132 by Western blot analysis; type: cell-based; details: Human dermal papilla cell
[3] = target: T1, Protein cereblon/Androgen receptor; experiment: PROTAC activity at CRBN/AR in human dermal papilla cells assessed as induction of AR degradation at 500 nM in presence of warhead of compound by Western blot analysis; type: cell-based; details: Human dermal papilla cell
[4] = target: T1, Protein cereblon/Androgen receptor; experiment: PROTAC activity at CRBN/AR in human dermal papilla cells assessed as decrease in AR protein level at 1 uM preincubated with testosterone for 24 hrs followed by compound addition and measured after 48 hrs by Western blot analysis; type: cell-based; details: Human dermal papilla cell
[5] = Cmax in male ICR mouse skin at 4 mg/ml, TOP measured after 12 hrs by LC-MS/MS analysis; type: ADME, tissue-based, Skin of body; details: topical or ocular
[6] = Ratio of drug concentration in male ICR mouse skin to plasma at 4 mg/ml, TOP measured after 2 hrs by LC-MS/MS analysis; type: ADME, cell-free; details: other tissue, topical_or_ocular
[7] = Ratio of drug concentration in male ICR mouse skin to plasma at 4 mg/ml, TOP measured after 4 hrs by LC-MS/MS analysis; type: ADME, cell-free; details: other tissue, topical_or_ocular
[8] = Ratio of drug concentration in male ICR mouse skin to heart at 4 mg/ml, TOP measured after 12 hrs by LC-MS/MS analysis; type: ADME, tissue-based; details: in vivo, topical_or_ocular
[9] = Ratio of drug concentration in male ICR mouse skin to liver at 4 mg/ml, TOP measured after 8 hrs by LC-MS/MS analysis; type: ADME, tissue-based; details: in vivo, topical_or_ocular
[10] = Ratio of drug concentration in male ICR mouse skin to spleen at 4 mg/ml, TOP measured after 1 hrs by LC-MS/MS analysis; type: ADME, tissue-based; details: in vivo, topical_or_ocular
[11] = Ratio of drug concentration in male ICR mouse skin to lungs at 4 mg/ml, TOP measured after 4 hrs by LC-MS/MS analysis; type: ADME, tissue-based, Skin/Lung; details: in vivo, topical_or_ocular
[12] = Ratio of drug concentration in male ICR mouse skin to kidney at 4 mg/ml, TOP measured after 0.5 hrs by LC-MS/MS analysis; type: ADME, tissue-based; details: in vivo, topical_or_ocular
Mus musculus [13] = experiment: Hair regeneration efficacy in testosterone induced male C57BL/6 mouse androgenetic alopecia model at 0.1 to 0.4 %, TOP administered once daily for 14 days and measured after 21 days with co-administration of 0.2% testosterone for 28 days by photographic analysis; type: functional, organism-based; details: dose 0.1-0.4 %, time 14.0 day
Mus musculus [14] = experiment: Hair regeneration efficacy in testosterone induced male C57BL/6 mouse androgenetic alopecia model assessed as entry of hair follicles to anagen phase by measuring high density of enlarged hair bulbs in subcutaneous tissue at 0.4 %, TOP administered once daily for 14 days with co-administration of 0.2% testosterone for 28 days by H and E staining based analysis; type: functional, organism-based; details: time 14.0 day
Mus musculus [15] = experiment: Hair regeneration efficacy in testosterone induced male C57BL/6 mouse androgenetic alopecia model assessed as increase in hair cycle score at 0.4 %, TOP administered once daily for 14 days with co-administration of 0.2% testosterone for 28 days; type: functional, organism-based; details: time 14.0 day
[16] = target: Protein cereblon/Androgen receptor (Mus musculus) (UniProt P19091+Q8C7D2); experiment: In vivo PROTAC activity at CRBN/AR in testosterone induced male C57BL/6 mouse androgenetic alopecia model assessed as decrease in TGF-beta expression level in skin at 0.4 % TOP administered once daily for 14 days with co-administration of 0.2% testosterone for 28 days by DAPI staining based immunofluorescence analysis; type: functional, organism-based; details: time 14.0 day
Chain of Protein cereblon/Androgen receptor (Mus musculus) (P19091 whole entry, looked up): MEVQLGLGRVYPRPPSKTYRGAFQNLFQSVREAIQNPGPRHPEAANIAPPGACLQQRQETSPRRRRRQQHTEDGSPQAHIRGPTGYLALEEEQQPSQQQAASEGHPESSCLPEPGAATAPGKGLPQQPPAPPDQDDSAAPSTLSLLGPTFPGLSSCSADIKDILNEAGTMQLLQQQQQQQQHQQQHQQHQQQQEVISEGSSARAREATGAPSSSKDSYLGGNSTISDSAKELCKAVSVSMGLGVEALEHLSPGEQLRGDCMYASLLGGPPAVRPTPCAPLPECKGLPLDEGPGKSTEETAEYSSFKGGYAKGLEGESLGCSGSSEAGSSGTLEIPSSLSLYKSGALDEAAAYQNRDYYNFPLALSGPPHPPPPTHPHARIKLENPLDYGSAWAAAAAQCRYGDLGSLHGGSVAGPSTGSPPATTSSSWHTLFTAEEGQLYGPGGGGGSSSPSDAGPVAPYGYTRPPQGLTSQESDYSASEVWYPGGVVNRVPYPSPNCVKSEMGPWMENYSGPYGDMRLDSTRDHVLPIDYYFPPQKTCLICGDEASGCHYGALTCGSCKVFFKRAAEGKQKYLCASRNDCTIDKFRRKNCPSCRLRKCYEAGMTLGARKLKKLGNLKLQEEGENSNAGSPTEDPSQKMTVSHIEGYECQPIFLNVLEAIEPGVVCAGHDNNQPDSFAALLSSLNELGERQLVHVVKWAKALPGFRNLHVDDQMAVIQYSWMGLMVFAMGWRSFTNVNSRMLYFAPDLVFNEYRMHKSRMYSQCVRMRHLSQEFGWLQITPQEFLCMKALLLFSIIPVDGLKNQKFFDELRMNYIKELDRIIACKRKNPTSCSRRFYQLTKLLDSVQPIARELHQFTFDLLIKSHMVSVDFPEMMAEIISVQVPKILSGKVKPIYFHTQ
Chain of Protein cereblon/Androgen receptor (Mus musculus) (Q8C7D2 whole entry, looked up): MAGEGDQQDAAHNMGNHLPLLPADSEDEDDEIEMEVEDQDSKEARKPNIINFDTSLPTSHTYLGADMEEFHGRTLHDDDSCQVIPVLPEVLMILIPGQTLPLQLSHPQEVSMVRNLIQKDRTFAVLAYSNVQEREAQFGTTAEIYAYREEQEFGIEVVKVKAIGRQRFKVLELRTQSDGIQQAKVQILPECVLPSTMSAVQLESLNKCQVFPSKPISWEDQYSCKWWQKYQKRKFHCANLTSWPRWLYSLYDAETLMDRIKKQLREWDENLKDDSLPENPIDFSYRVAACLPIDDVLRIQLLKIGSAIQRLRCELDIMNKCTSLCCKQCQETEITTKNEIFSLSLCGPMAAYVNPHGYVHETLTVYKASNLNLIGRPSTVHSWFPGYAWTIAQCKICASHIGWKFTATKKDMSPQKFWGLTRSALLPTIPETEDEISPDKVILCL

With `N#Cc1ccc(O[C@H]2CC[C@H](NC(=O)c3ccc(C4CCN(CC5CCCN(c6ccc(C(=O)NC7CCC(=O)NC7=O)cc6)C5)CC4)cc3)CC2)cc1Cl` (stereo partly specified) the Activity [1] was “Time-dependent-effect”, the Activity [2] was “Not active; Compound Activity Dependent On Ubiquitin-Proteosome System” and the Activity [3] was “inactive”. The Activity [4] was “Active; Most Pronounced Degradation Observed”, the Cmax [5] was 86700 ng/g and the Ratio [6] was 1098.91. The Ratio [7] was 1873.84, the Ratio [8] was 274.38 and the Ratio [9] was 196.27. It also gave a Ratio [10] of 472.95, a Ratio [11] of 238.43 and a Ratio [12] of 190.39. For the same compound, the Activity (Mus musculus [13]) was “Active”, the Activity (Mus musculus [14]) was “Active” and the Activity (Mus musculus [15]) was “Active”. The Activity [16] was “Active”.
